The source of these data is article PMC12526275, “hERG Channel Blockade and Antagonistic Interactions of Three Steroidal Alkaloids from Fritillaria Species” (Molecules, 2025).

What all share (format): cell-based
For data set [1], the target named is T1, hERG channel (human Ether-a-go-go-Related Gene, Kv11.1) (Homo sapiens, UniProt Q12809).
T1 construct: gene KCNH2
In words: manual whole-cell patch clamp, hERG tail currents in stably expressing HEK293 cells. For orientation: In patch-clamp work, channel activity is measured electrically.

Data set [2] deals with T2, hERG channel mutant S631A (Homo sapiens, UniProt Q12809, S631A).
T2 construct: gene KCNH2
T2 sequence (Q12809 whole entry S631A): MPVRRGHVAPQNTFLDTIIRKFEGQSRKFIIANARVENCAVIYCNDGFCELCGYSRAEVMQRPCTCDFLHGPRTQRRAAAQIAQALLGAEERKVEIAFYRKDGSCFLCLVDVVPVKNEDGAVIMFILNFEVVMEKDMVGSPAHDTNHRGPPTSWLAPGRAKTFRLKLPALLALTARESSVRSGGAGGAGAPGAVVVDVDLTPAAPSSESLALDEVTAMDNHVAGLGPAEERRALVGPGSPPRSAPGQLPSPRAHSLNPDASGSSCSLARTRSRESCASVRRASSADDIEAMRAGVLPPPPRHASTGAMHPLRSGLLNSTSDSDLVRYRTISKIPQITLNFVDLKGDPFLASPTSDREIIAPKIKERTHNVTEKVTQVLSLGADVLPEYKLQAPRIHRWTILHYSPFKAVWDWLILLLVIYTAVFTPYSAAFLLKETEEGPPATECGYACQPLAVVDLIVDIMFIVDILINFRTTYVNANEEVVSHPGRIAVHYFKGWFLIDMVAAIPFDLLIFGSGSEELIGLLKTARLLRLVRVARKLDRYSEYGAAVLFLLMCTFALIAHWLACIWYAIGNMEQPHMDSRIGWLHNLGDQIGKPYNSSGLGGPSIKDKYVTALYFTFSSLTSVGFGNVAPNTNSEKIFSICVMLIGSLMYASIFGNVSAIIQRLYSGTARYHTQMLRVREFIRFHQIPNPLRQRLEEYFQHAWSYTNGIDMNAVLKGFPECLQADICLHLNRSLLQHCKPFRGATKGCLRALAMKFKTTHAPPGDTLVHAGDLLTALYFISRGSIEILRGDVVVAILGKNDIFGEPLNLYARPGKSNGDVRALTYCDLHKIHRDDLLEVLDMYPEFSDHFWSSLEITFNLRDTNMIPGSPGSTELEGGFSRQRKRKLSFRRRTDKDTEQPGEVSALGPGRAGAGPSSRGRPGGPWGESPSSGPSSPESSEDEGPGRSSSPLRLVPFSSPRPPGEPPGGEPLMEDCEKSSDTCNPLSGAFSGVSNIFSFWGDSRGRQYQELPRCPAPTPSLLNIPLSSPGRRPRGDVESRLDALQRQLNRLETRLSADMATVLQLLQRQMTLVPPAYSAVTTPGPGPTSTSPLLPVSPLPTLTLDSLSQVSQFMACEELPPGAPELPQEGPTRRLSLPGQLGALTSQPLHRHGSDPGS
In words: whole-cell patch clamp, transiently transfected HEK293 cells; inhibition at […].

For data set [3], the target named is T1, hERG channel (human Ether-a-go-go-Related Gene, Kv11.1). The data set is described as follows: manual whole-cell patch clamp, hERG tail currents in stably expressing HEK293 cells; IC50 extrapolated (maximum tested […]).

T1 sequence (Q12809 whole entry): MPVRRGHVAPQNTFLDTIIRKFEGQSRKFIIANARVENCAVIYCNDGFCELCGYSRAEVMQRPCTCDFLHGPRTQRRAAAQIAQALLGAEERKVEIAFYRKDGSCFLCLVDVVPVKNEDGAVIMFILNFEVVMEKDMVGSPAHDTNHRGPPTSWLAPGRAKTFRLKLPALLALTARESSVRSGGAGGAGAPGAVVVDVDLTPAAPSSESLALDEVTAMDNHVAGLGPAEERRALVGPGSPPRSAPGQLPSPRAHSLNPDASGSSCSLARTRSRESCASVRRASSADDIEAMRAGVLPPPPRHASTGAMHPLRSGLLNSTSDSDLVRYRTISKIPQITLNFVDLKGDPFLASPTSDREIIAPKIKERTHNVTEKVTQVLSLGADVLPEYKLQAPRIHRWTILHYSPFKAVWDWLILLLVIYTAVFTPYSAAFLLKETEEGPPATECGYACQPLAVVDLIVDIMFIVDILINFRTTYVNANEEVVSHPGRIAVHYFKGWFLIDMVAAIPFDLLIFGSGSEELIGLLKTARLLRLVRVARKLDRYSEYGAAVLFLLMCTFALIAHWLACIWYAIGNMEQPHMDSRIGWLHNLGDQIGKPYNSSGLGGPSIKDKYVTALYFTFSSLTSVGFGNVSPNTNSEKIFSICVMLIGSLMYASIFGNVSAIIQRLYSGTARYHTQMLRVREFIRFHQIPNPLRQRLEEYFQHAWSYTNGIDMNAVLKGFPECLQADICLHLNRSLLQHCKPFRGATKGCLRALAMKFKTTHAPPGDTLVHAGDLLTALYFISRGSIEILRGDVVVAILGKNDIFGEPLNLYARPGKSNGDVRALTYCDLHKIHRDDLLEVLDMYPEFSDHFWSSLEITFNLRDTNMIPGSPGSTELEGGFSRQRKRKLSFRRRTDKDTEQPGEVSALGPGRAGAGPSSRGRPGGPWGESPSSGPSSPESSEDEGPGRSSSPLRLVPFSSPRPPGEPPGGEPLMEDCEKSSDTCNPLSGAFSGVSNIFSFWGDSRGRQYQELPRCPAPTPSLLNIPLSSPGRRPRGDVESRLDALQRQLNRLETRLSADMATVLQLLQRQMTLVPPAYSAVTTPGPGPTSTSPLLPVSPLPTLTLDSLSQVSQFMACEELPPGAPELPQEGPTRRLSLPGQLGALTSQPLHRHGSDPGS

In general, IC50 refers to the concentration needed to halve the response being measured. In data set [1], `C[C@H]1CC[C@@H]2N(C1)C[C@H]1[C@@H]3C[C@H]4[C@@H](C[C@H](O)[C@H]5C[C@@H](O)CC[C@@]54C)[C@@H]3CC[C@@H]1[C@]2(C)O` [peimine] displayed an IC50 of 26.1 ± 3.5 µM.

Broadly, the inhibition is how much of the control response was suppressed. Read a high inhibition as a strong effect. On to `C[C@H]1CC[C@@H]2N(C1)C[C@H]1[C@@H]3C[C@H]4[C@@H](CC(=O)[C@H]5C[C@@H](O)CC[C@@]54C)[C@@H]3CC[C@@H]1[C@]2(C)O` [peiminine], for which the IC50 in data set [1] was found to be 36.8 ± 2.5 µM. Besides, the inhibition at 100 µM in data set [2] worked out at 12.3 ± 1.4%.

On to `C[C@H]1CC[C@@H]2N(C1)C[C@H]1[C@@H]3C[C@H]4[C@@H](CC(=O)[C@H]5C[C@@H](O)CC[C@@]54C)[C@@H]3CC[C@H]1[C@]2(C)O` [sipeimine], for which the IC50 in data set [3] was roughly 47.6 µM.
